The values below come from patent publication US20220073536A1 (Rigel Pharmaceuticals, Inc., priority 2003, published 2022).

Where a name gives a salt, the structure may show the parent alone. Read-outs that look alike come from different tables or passages of the source. Where only a bound is given, the exact number is not on record here.

For the assay, the system named is cultured human mast cells (CHMC). Description: CHMC low cell density IgE activation: tryptase assay. The format is cell-based. The following applies: IgE activation. As for the experimental part: Inhibition of degranulation was measured at both low and high cell density by quantifying the release of the granule specific factors tryptase, histamine and hexosaminidase. Inhibition of release and/or synthesis of lipid mediators was assessed by measuring the release of leukotriene LTC4 and inhibition of release and/or synthesis of cytokines was monitored by quantifying TNF-α, IL-6 and IL-13. Tryptase and hexosaminidase were quantified using fluorogenic substrates as described in their respective examples. […] The protocols of the various assays are provided below.
Pellet CHMC cells (980 rpm, 10 min) and resuspend in pre-warmed MT. Add 65 ul of cells to each 96-well plate. Depending on the degranulation activity for each particular CHMC donor, load 1000-1500 cells/well. Mix four times followed by a 1 hr incubation at 37° C. […] Stimulate cells by adding 25 ul of 6× anti-IgE solution to the appropriate plates. Add 25 ul MT to un-stimulated control wells. Mix twice following addition of the anti-IgE. Incubate at 37° C. for 30 minutes. […] Spin plates at 1000 rpm for 10 min to pellet cells. Transfer 25 ul of supernatant to a 96-well black bottom plate and add 100 ul of freshly diluted tryptase substrate solution to each well. Incubate plates at room temperature for 30 min.

Where [1] appears, read: Homo sapiens, Mast cell, low cell density CHMC, tryptase, 3 pt, read-out: LD Tryptase, CHMC, IgE, 3 pt.
The mark [2] stands for this setting: Homo sapiens, Mast cell, low cell density, 3 pt, read-out: LD Tryptase, CHMC, IgE, 3 pt.
Where [3] appears, read: Homo sapiens, Mast cell, low cell density, 8 pt, read-out: LD Tryptase, CHMC, IgE, 8 pt.
The mark [4] stands for this setting: low cell density CHMC, tryptase, 3 pt, read-out: LD Tryptase, CHMC, IgE, 3 pt.
[5] abbreviates: Homo sapiens, Mast cell, low cell density CHMC, tryptase, 8 pt, read-out: LD Tryptase, CHMC, IgE, 8 pt.
Setting [6] is: Homo sapiens, Mast cell, low cell density CHMC, tryptase release, 8 pt, read-out: LD Tryptase, CHMC, IgE, 8 pt.
Where [7] appears, read: low cell density CHMC, tryptase, 8 pt, read-out: LD Tryptase, CHMC, IgE, 8 pt.
[8] abbreviates: low cell density CHMC, tryptase release, 3 pt, read-out: LD Tryptase, CHMC, IgE, 3 pt.
The mark [9] stands for this setting: low cell density CHMC, tryptase release, 8 pt, read-out: LD Tryptase, CHMC, IgE, 8 pt.
Where [10] appears, read: low cell density, 8 pt, read-out: LD Tryptase, CHMC, IgE, 8 pt.

Take `Cc1cc(Nc2ncc(F)c(NC3CCCCC3)n2)cnc1N1CCN(C)CC1` [Compound 1241]: the IC50 under setting [1] is under 10 µM.
`Cn1c(=O)[nH]c2cc(Nc3ncc(F)c(Nc4ccc5c(c4)NC(=O)C(C)(C)O5)n3)ccc21` [Compound 906]: the IC50 by setting is: under setting [2], under 10 µM; under setting [3], under 10 µM.
As to `NC(=O)c1ccc(Nc2ncc(F)c(NC3CCCC3)n2)cc1` [Compound 1349], the IC50 under setting [1] was over 10 µM.
For the molecule `CCCn1ncc2cc(Nc3ncc(F)c(Nc4ccc(Cl)c(Cl)c4)n3)ccc21` [Compound 703, N4-(3,4-Dichlorophenyl)-5-fluoro-N2-(1-n-propylindazol-5-yl)-2,4-pyrimidinediamine], the IC50 under setting [1] is under 10 µM.
`CCCCn1ncc2cc(Nc3ncc(F)c(Nc4ccc(Cl)c(Cl)c4)n3)ccc21` [Compound 711, N2-(1-n-Butylindazol-5-yl)-N4-(3,4-dichlorophenyl)-5-fluoro-2,4-pyrimidinediamine]: the IC50 under setting [1] was under 10 µM.
Consider “N4- (3,4-Ethylenedioxyphenyl)-5-fluoro-N2-[3,4-(tetrafluoroethylenedioxy)phenyl]-2,4-pyrimidinediamine [Compound 363]”, for which, under setting [4], the IC50 is under 10 µM.
As for `CN1CCN(c2cccc(Nc3ncc(F)c(NC4CC(C)(C)N(C)C(C)(C)C4)n3)c2)CC1` [Compound 1221], under setting [1], the IC50 is over 10 µM.
As for `Cc1nc2cc(Nc3ncc(F)c(Nc4ccc5c(c4)NC(=O)C(C)(C)O5)n3)ccc2n1CCO` [Compound 901], the IC50 under setting [2] is under 10 µM and the IC50 under setting [3] is under 10 µM.
Consider `CC1(C)Oc2ccc(Nc3nc(Nc4ccc5c(cnn5CC5CCC5)c4)ncc3F)cc2NC1=O` [Compound 728, N2-[1-(Cyclobutylmethyl)indazol-5-yl]-N4-(2,2-dimethyl-3-oxo-4H-benz[1,4]oxazin-6-yl)-5-fluoro-2,4-pyrimidinediamine], for which the IC50 under setting [5] was under 10 µM.
In the case of `COc1cc(Nc2nc(Nc3cccc4cc(C(=O)O)[nH]c34)ncc2F)cc(OC)c1` [Compound 383], under setting [1], the IC50 was under 10 µM.
Turning to `COc1ccc(Nc2nc(Nc3ccc4c(cnn4C(C)C)c3)ncc2F)cc1Cl` [Compound 779, N4-(3-Chloro-4-methoxyphenyl)-5-fluoro-N2-[1-(1-methylethyl)indazol-5-yl]-2,4-pyrimidinediamine], the IC50 under setting [6] is under 10 µM.
For `CC(C)(C)C(=O)NCCCn1ncc2cc(Nc3ncc(F)c(Nc4ccc5c(c4)NC(=O)C(C)(C)O5)n3)ccc21` [Compound 850, N4-(2,2-Dimethyl-3-oxo-4H-benz[1,4]oxazin-6-yl)-5-fluoro-N2-[1-(3-pivalamidopropyl)indazol-5-yl]-2,4-pyrimidinediamine], the IC50 under setting [6] is under 10 µM.
Regarding `COc1cc(Nc2nc(Nc3ccc4cnn(CC5CC5)c4c3)ncc2F)ccc1F` [Compound 741, N2-[1-(Cyclopropylmethyl)indazol-6-yl)-5-fluoro-N4-(4-fluoro-3-methoxyphenyl)-2,4-pyrimidinediamine], under setting [5], the IC50 is under 10 µM.
Turning to `CC1C(=O)Nc2cc(Nc3nc(Nc4ccc5[nH]c(C(F)(F)F)nc5c4)ncc3F)ccc2S1(=O)=O` (centres unmarked) [Compound 910, 5-Fluoro-N4-(2-methyl-1,1,3-trioxo-2H,4H-benzo[1,4]thiazin-6-yl)-N2-(2-trifluoromethyl-1H-benzimidazol-5-yl)-2,4-pyrimidinediamine], under setting [2], the IC50 is under 10 µM.
Regarding “N4- (2,2-Dimethyl-3-oxo-4H-N4-oxo-5-pyrido[1,4]oxazin-6-yl)-5-fluoro-N2- (3,4,5-trimethoxyphenyl)-2,4-pyrimidinediamine [Compound 1340]”, the IC50 under setting [4] was under 10 µM and the IC50 under setting [7] is under 10 µM.
As for “N4-[benzoxathiazin-3 (4H)-one-6-yl]2-chloro-5-fluoro-4-pyrimidineamine [Compound 319]”, under setting [8], the IC50 was under 10 µM.
In the case of `C[C@@H]1Oc2ccc(Nc3nc(Nc4ccc5c(cnn5CCCNC(=O)C(C)(C)C)c4)ncc3F)cc2NC1=O` [Compound 851, 5-Fluoro-(S)-N4-(2-methyl-3-oxo-4H-benz[1,4]oxazin-6-yl)-N2-[1-(3-pivalamidopropyl)indazol-5-yl]-2,4-pyrimidinediamine], the IC50 under setting [6] was under 10 µM.
As to `CCn1ncc2ccc(Nc3ncc(F)c(Nc4ccc(OC)c(Cl)n4)n3)cc21` [Compound 887], under setting [2], the IC50 was under 10 µM.
In the case of `CC1Sc2ccc(Nc3nc(Nc4cccc(O)c4)ncc3F)cc2NC1=O` (racemic) [Compound 282], under setting [6], the IC50 is under 10 µM.
For `Cc1cc(Nc2ncc(F)c(NC3CCC3)n2)ccc1N1CCN(C)CC1` [Compound 1220], under setting [5], the IC50 was under 10 µM.
Turning to `Cc1nn(C)c2cc(Nc3ncc(F)c(Nc4ccc5c(n4)NC(=O)C(C)(C)O5)n3)ccc12` [Compound 812, N2-(1,3-Dimethylindazol-6-yl)-N4-(2,2-dimethyl-3-oxo-4H-5-pyrid[1,4]oxazin-6-yl)-5-fluoro-2,4-pyrimidinediamine], under setting [9], the IC50 was under 10 µM.
For `Oc1c(Cl)cc(Nc2ncc(F)c(Nc3ccc4c(c3)OC(F)(F)O4)n2)cc1Cl` [Compound 564], the IC50 under setting [10] was under 10 µM.
As to `COCCCn1ncc2ccc(Nc3ncc(F)c(Nc4ccc5c(n4)NC(=O)C(C)(C)O5)n3)cc21` [Compound 839, N4-(2,2-Dimethyl-3-oxo-4H-5-pyrid[1,4]oxazin-6-yl)-5-fluoro-N2-[1-(3-methoxypropyl)indazol-6-yl]-2,4-pyrimidinediamine], the IC50 reads like this: under setting [8], under 10 µM; under setting [9], under 10 µM.
With “(S)-N2-[3- (N-tert-Butoxycarbonylamino)methylenephenyl]-5-fluoro-N4- (2-methyl-3-oxo-2H,4H-benz[1,4]oxazin-6-yl)-2,4-pyrimidinediamine [Compound 1276]”, the IC50 was under 10 µM under setting [4] and under 10 µM under setting [7].
Take `CC1(C)Oc2ccc(Nc3nc(Nc4ccc5c(cnn5CCCN5C(=O)CCC5=O)c4)ncc3F)cc2NC1=O` [Compound 855, N4-(2,2-Dimethyl-3-oxo-4H-benz[1,4]oxazin-6-yl)-5-fluoro-N2-[1-[3-(N-succinimidopropyl)]indazol-5-yl]-2,4-pyrimidinediamine]: the IC50 under setting [8] is under 10 µM and the IC50 under setting [9] was under 10 µM.
Consider `Fc1cnc(Nc2cccc(N3CCOCC3)c2)nc1Nc1ccc2c(n1)NCCO2` [Compound 1136, N4-(3,4-Dihydro-2H,4H-5-pyrid[1,4]oxazin-6-yl)-5-fluoro-N2-(3-morpholinophenyl)-2,4-pyrimidinediamine], for which the IC50 is, setting by setting: under setting [4], under 10 µM; under setting [7], under 10 µM.
Consider `COc1ccc(Nc2ncc(F)c(Nc3ccc4c(c3)NC(=O)C(C)(C)S4(=O)=O)n2)cc1Cl` [Compound 276], for which the IC50 under setting [9] was under 10 µM.
Turning to `CC(=O)NCCCn1ncc2cc(Nc3ncc(F)c(Nc4ccc5c(c4)NC(=O)C(C)(C)O5)n3)ccc21` [Compound 821, N2-[1-[3-(N-Acetylamino)propyl]indazol-5-yl]-N4-(2,2-dimethyl-3-oxo-4H-benz[1,4]oxazin-6-yl)-5-fluoro-2,4-pyrimidinediamine], the IC50 under setting [6] is under 10 µM.
Take `C[C@@H]1Oc2ccc(Nc3nc(Nc4ccc5c(cnn5CCCNS(=O)(=O)C(F)(F)F)c4)ncc3F)cc2NC1=O` [Compound 843, (S)-5-Fluoro-N4-(2-methyl-3-oxo-2H,4H-benz[1,4]oxazin-6-yl)-N2-[1-[3-(N-trifluoromethylsulfonylamino)propyl]indazol-5-yl]-2,4-pyrimidinediamine]: the IC50 under setting [6] is under 10 µM.
Consider `CC(=O)N1CCN(c2ccc(Nc3ncc(F)c(NC4CCC4)n3)cc2)CC1` [Compound 1192, N2-[4-(4-Acetylpiperazino)phenyl]-N4-cyclobutyl-5-fluoro-2,4-pyrimidinediamine Bis Hydrogen Chloride Salt], for which, under setting [4], the IC50 was under 10 µM.
Consider `Cc1cc2c(cnn2C)cc1Nc1ncc(F)c(Nc2ccc3c(c2)NC(=O)C(C)(C)O3)n1` [Compound 758, N2-(1,6-Dimethylindazol-5-yl)-N4-(2,2-dimethyl-3-oxo-4H-benz[1,4]oxazin-6-yl)-5-fluoro-2,4-pyrimidinediamine], for which the IC50 was under 10 µM under setting [1] and under 10 µM under setting [5].
Regarding `COc1cc(Nc2ncc(F)c(Nc3ccc4c(c3)NCC(C)(C)O4)n2)cc(OC)c1` [Compound 1002, N4-(3,4-Dihydro-2,2-dimethyl-4H-benz[1,4]oxazin-6-yl)-N2-(3,5-dimethoxyphenyl)-5-fluoro-2,4-pyrimidinediamine], under setting [10], the IC50 is under 10 µM.
As for `Fc1cnc(Nc2ccc3cnn(C4CCCCC4)c3c2)nc1Nc1ccc(Cl)c(Cl)c1` [Compound 747, N2-(1-Cyclohexylindazol-6-yl)-N4-(3,4-dichlorophenyl)-5-fluoro-2,4-pyrimidinediamine], the IC50 under setting [1] was under 10 µM.
